In PubChem BioAssay (NCI):
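How tested: cells in 96-well plates exposed to compound for 48 hours at five concentrations. GI50: concentration for 50% inhibition of growth. TGI marks complete inhibition of growth.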

Experiments:
Test in all cases: NCI anticancer screen, dose series, 48 h
A498 renal = test system: A498 renal
HCC-2998 colon = test system: HCC-2998 colon
HL-60(TB) leukemia = test system: HL-60(TB) leukemia
LOX IMVI melanoma = test system: LOX IMVI melanoma
M14 melanoma = test system: M14 melanoma
MALME-3M melanoma = test system: MALME-3M melanoma
MOLT-4 leukemia = test system: MOLT-4 leukemia
NCI-H23 lung = test system: NCI-H23 lung
OVCAR-5 ovarian = test system: OVCAR-5 ovarian
RXF 393 renal = test system: RXF 393 renal

Compound: O=S(OC12CC3CC(CC(C3)C1)C2)c1cc(Cl)cc(Cl)c1OCc1ccccc1 (stereo not given)
- TGI (A498 renal): > 100 µM
- TGI (HCC-2998 colon): > 100 µM
- TGI (HL-60(TB) leukemia): > 100 µM
- TGI (LOX IMVI melanoma): > 100 µM
- TGI (M14 melanoma): > 100 µM
- TGI (MALME-3M melanoma): > 100 µM
- TGI (MOLT-4 leukemia): > 100 µM
- TGI (NCI-H23 lung): > 100 µM
- TGI (OVCAR-5 ovarian): > 100 µM
- TGI (RXF 393 renal): > 100 µM

Compound: Nc1ccccc1.[C-]#[O+].[C-]#[O+].[C-]#[O+].[C-]#[O+].[C-]#[O+].[Cr]
- GI50 (A498 renal): 3 µM
- TGI (A498 renal): 8.28 µM
- GI50 (HCC-2998 colon): 6.17 µM
- TGI (HCC-2998 colon): > 10 µM
- GI50 (HL-60(TB) leukemia): 1.68 µM
- TGI (HL-60(TB) leukemia): 6.94 µM
- GI50 (LOX IMVI melanoma): 3.15 µM
- TGI (LOX IMVI melanoma): 8.56 µM
- GI50 (M14 melanoma): 3.44 µM
- TGI (M14 melanoma): > 10 µM
- GI50 (MALME-3M melanoma): 4.72 µM
- TGI (MALME-3M melanoma): > 10 µM
- GI50 (MOLT-4 leukemia): 3.26 µM
- TGI (MOLT-4 leukemia): > 10 µM
- GI50 (NCI-H23 lung): 3.67 µM
- TGI (NCI-H23 lung): > 10 µM
- GI50 (OVCAR-5 ovarian): > 10 µM
- TGI (OVCAR-5 ovarian): > 10 µM
- GI50 (RXF 393 renal): 3.22 µM
- TGI (RXF 393 renal): > 10 µM

Compound: Cc1cn(C2CC(N)C(C(=O)NCC(=O)O)O2)c(=O)[nH]c1=O (stereo not given)
- TGI (A498 renal): > 100 µM
- TGI (HCC-2998 colon): > 100 µM
- TGI (HL-60(TB) leukemia): > 100 µM
- TGI (LOX IMVI melanoma): > 100 µM
- TGI (M14 melanoma): > 100 µM
- TGI (MALME-3M melanoma): > 100 µM
- TGI (MOLT-4 leukemia): > 100 µM
- TGI (NCI-H23 lung): > 100 µM
- TGI (OVCAR-5 ovarian): > 100 µM
- TGI (RXF 393 renal): > 100 µM

Compound: O=[N+]([O-])c1ccccc1S(=O)(=O)c1ccccc1
- TGI (A498 renal): > 100 µM
- TGI (HCC-2998 colon): > 100 µM
- TGI (HL-60(TB) leukemia): > 100 µM
- TGI (LOX IMVI melanoma): > 100 µM
- TGI (M14 melanoma): > 100 µM
- TGI (MALME-3M melanoma): > 100 µM
- TGI (MOLT-4 leukemia): > 100 µM
- TGI (NCI-H23 lung): > 100 µM
- TGI (OVCAR-5 ovarian): > 100 µM
- TGI (RXF 393 renal): > 100 µM

Compound: CC(=O)OCC1OC(OCCCCCCO)C(OC(C)=O)C(OC(C)=O)C1OC(C)=O (stereo not given)
- TGI (A498 renal): > 100 µM
- TGI (HCC-2998 colon): > 100 µM
- TGI (HL-60(TB) leukemia): > 100 µM
- TGI (LOX IMVI melanoma): > 100 µM
- TGI (M14 melanoma): > 100 µM
- TGI (MOLT-4 leukemia): > 100 µM
- TGI (NCI-H23 lung): > 100 µM
- TGI (OVCAR-5 ovarian): > 100 µM
- TGI (RXF 393 renal): > 100 µM

Compound: CC1(C)C(=O)c2ccccc2OC1N1CCN(C2Oc3ccccc3C(=O)C2(C)C)CC1 (stereo not given)
- TGI (A498 renal): > 100 µM
- TGI (HCC-2998 colon): > 100 µM
- TGI (HL-60(TB) leukemia): > 100 µM
- TGI (LOX IMVI melanoma): > 100 µM
- TGI (M14 melanoma): > 100 µM
- TGI (MALME-3M melanoma): > 100 µM
- TGI (MOLT-4 leukemia): > 100 µM
- TGI (NCI-H23 lung): > 100 µM
- TGI (OVCAR-5 ovarian): > 100 µM
- TGI (RXF 393 renal): > 100 µM

Compound: COc1ccc(-c2ccc(-c3ccc(C(=N)N)nc3)s2)cc1Cl
- GI50 (MALME-3M melanoma): 1.78 µM
- TGI (MALME-3M melanoma): 3.32 µM
- GI50 (OVCAR-5 ovarian): 1.86 µM
- TGI (OVCAR-5 ovarian): 3.32 µM
- GI50 (RXF 393 renal): 1.76 µM
- TGI (RXF 393 renal): 3.23 µM
